Assay: Human HepG2 cell viability assay in 384 well format
Type: toxicity, cell-based
Parameters: dose 125 nL, time 70.5 hour; cytotoxicity at 70.5 h: concentration not given beside the values
Details: HepG2 cells, read-out: Inhibition

Row | Compound | cytotoxicity at 70.5 h [%]
1 | Cc1nc(C)n(C2CCCN(C(=O)c3cccc4[nH]ncc34)C2)n1 (stereo not given) | -6.19
2 | c1ccc(-c2nnc3sc(CCN4CCCCCC4)nn23)cc1 | -11.1
3 | Cc1ccc(N2CCCc3sc(C(=O)NCc4ccc(C)o4)nc32)nn1 | -6.21
4 | CCS(=O)(=O)N1CCCN(CCCOC)CC1 | -6.15
5 | C=C(C)COc1ccccc1NC(=O)N1CCCCC1CO (stereo not given) | 4.81
6 | O=C(c1ccsc1)N1CCc2c(CNc3nccs3)n[nH]c2C1 | -2.81
7 | CCC(=O)Nc1cc(Cl)ccc1C(=O)N(C)Cc1noc(CC)n1 | -5.2
8 | Cc1cccc(CN2CCC3(CC2)CN(c2cccnc2)C(=O)CO3)n1 | -4.77
9 | CN(Cc1ccc(Cl)s1)C(=O)NCc1nnc2n1CCC2 | 2.59
10 | Cc1ncsc1C(=O)NC1CCN(Cc2ccc(C(N)=O)cc2)CC1 | 1.08
11 | COc1ccc(C(=O)NC2CCN(c3ncccn3)CC2)cc1F | -8.33
12 | Cc1nnc(SCCNc2cc(C3CC3)ncn2)s1 | -5.85
13 | Cc1csc(NC(=O)CN(C)CCOc2cccc(F)c2)n1 | 15.2
14 | CCS(=O)(=O)N1CCC2(CC(=O)N(c3cccc(C)c3)C2)C1 (stereo not given) | -4.67
15 | Cc1nc(C)c(CC(=O)N2C[C@H]3CC[C@@H]2CN(c2cnccn2)C3)s1 | -4.55
16 | CNS(=O)(=O)CC(=O)N1CCCc2cc(C(C)C)ccc21 | -98.6
17 | O=C(NCCc1cccnc1)N1CCCC1c1ccsc1 (stereo not given) | -0.435
18 | Cc1cnn(C2CN(CCOc3cccc(C#N)c3)C2)c1 | -5.43
19 | CN(C)C(=O)Cc1ccccc1NCc1nc(Cc2ccccc2)no1 | -0.0229
20 | Cc1cc(C(=O)N(C)S(=O)(=O)C(C)C)ccc1F | -4.29
21 | Cc1ccc(N2C[C@H]3CCC[C@@]3(COc3cccnc3)C2)nn1 | -8.26
22 | CCn1ccnc1CN(C)Cc1nc(CCC(C)C)no1 | 1.4
23 | O=C1CCC(=O)N1CCN1CCN(c2cc(F)ccc2F)CC1 | -3.59

Row | Compound | cytotoxicity at 70.5 h [%]
24 | c1ccc(CN2CCCC(c3nccnc3-n3ccnc3)C2)cc1 (stereo not given) | -17.5
25 | CC(=O)NCC1CCN(C(=O)c2ccc(Sc3ccccn3)cc2)CC1 | -16.7
26 | C[C@@H]1C[C@H]2CN(C(=O)c3cccc4c3OCCO4)C[C@H]2O1 | -8.32
27 | CCc1cc(N2CCC(NCc3ccc(C)o3)CC2)ncn1 | 9.42
28 | CN(C)c1cc(C2CCCN(Cc3cnn(C)c3)C2)ccn1 (stereo not given) | -0.665
29 | COc1cccc(NC(=O)NC(C)c2ccc3c(c2)CC(=O)N3)c1 (stereo not given) | -3.09
30 | O=C(NCCc1ccc(F)cc1)NC1CCCc2c1cnn2CCO (stereo not given) | -6.55
31 | OC1CCN([C@@H]2CCN(c3nc(-c4ccccc4)no3)C[C@H]2O)CC1 | -1.33
32 | O=C(NCc1ccccn1)C1CN(c2nc3ccccc3s2)CCN1 (stereo not given) | -8.77
33 | Cc1cn([C@H]2CCNC[C@]2(C)O)c(=O)[nH]c1=O | 4.8
34 | O=C(C1CC1)N1CCN(Cc2coc(-c3ccc(Cl)cc3)n2)CC1 | 12.1
35 | CCOCC1COCCC12CCN(C(=O)C1=CCCC1)CC2 (stereo not given) | -5.05
36 | Cc1ccc(N2C[C@@H]3OCCN(Cc4c(C)noc4C)[C@@H]3C2)nn1 | -1.63
37 | CC(c1nc(C2CC2)no1)N1CCN(CCS(C)(=O)=O)CC1 (stereo not given) | -4.19
38 | CCn1nc(CC(C)C)cc1C(=O)NCCS(=O)(=O)N(C)C | 3.89
39 | CC(=O)NC(C)C(=O)NCc1ccc(N2CCNC(=O)C2)cc1 (stereo not given) | -15.7
40 | CC1=C[C@@H](CN2CCOCC2)[C@H](C(C)C)C[C@H]1Cc1nnc(C)o1 | -5.39
41 | NC(=O)Cn1ccnc1C1CCCN(Cc2cccc(Cl)c2F)C1 (stereo not given) | -11.7
42 | CC(C)[C@@H]1CN(Cc2cnc3c(S(C)(=O)=O)cnn3c2)C[C@H]1N(C)C | -7.81
43 | CC(C)(C)OC(=O)N[C@H]1CCN(c2cncc(Br)c2)C1 | 23.7
44 | C[C@@H]1CN(C2(C(=O)N3CCOCC3)Cc3ccccc3C2)C[C@H](C)O1 | 2.82
45 | Cc1cccc(=O)n1CCC(=O)N(C)Cc1cccc2ncccc12 | -15.2
46 | CS(=O)(=O)N1CCN(C(=O)c2ccco2)[C@H]2CS(=O)(=O)C[C@H]21 | 15.1

Row | Compound | cytotoxicity at 70.5 h [%]
47 | CC(C)c1cccc(-n2cc(O)c(C(=O)O)n2)c1 | -5.44
48 | Cc1n[nH]c2ncc(CNC3CCCN(c4ncccn4)C3)cc12 (stereo not given) | 0.0496
49 | O=C(CCC1CCN(C2Cc3ccccc3C2)CC1)NCC1CCCO1 (stereo not given) | 25.6
50 | CCC1CN(C(=O)c2cnc(-c3ccccc3)s2)CCO1 (stereo not given) | -1.27
51 | Cc1nccn1-c1ccc(C(C)Nc2cnn(C)c(=O)c2Cl)cc1 (stereo not given) | 9.7
52 | Cc1cnccc1Cn1ccnc1C1CCOC1 (stereo not given) | -7.66
53 | Cc1ccccc1C1(C(=O)N2CCCC(n3cncn3)C2)CC1 (stereo not given) | -10.8
54 | c1ccc2oc(CCCN3CCOC(Cn4cncn4)C3)nc2c1 (stereo not given) | 14.6
55 | Cc1ccc(-c2ccccc2CC2CNCCNC2=O)c(C)c1 (stereo not given) | 31.4
56 | Cc1nc(N2CCCC2)ncc1-c1cc(O)nc(NCC2CCCO2)n1 (stereo not given) | -5.1
57 | CCn1ccnc1CN1CCN(Cc2cccnc2)CC1C (stereo not given) | 7.86
58 | O=C(NCC1CC1)Nc1cnc2cc(Cl)ccc2c1O | -1.93
59 | CN(C)CCNCC1CCOC(C)(C)C1 (stereo not given) | -10.1
60 | O=C(CCCOCc1ccccc1)N1CCCC(n2cncn2)C1 (stereo not given) | -1.64
61 | CN(C)C[C@H]1OC[C@@H]2CCN(C(=O)Cc3cccs3)C[C@@H]21 | -9.21
62 | CN(C)C(=O)CNC(=O)c1ccc(Cl)cc1F | 45.3
63 | N#Cc1c2n(c3c(=O)[nH]cnc13)CCCCC2 | 2.85
64 | O=C(CC1CCN(c2cccnn2)CC1)Nc1nncs1 | -5.72
65 | Cc1cncc(C(=O)N2CCOc3nc(C)ccc32)c1 | -7.26
66 | CCN(Cc1nc(COC)no1)Cc1cccnc1NC | -21.9
67 | Cc1ccccc1CC(=O)N1C[C@@H](O)[C@H](N2CCN(C)CC2)C1 | 0.191
68 | COCCN(C)C[C@@H]1CN(C(=O)c2ccoc2)C[C@@H]1CO | -7.32
69 | CO[C@@]1(C)C[C@@H](O)C12CCN(C(=O)c1ccccc1C(C)=O)CC2 | -7.26

Row | Compound | cytotoxicity at 70.5 h [%]
70 | CCCc1nc(CN2CCOC(Cn3cccn3)C2)no1 (stereo not given) | -1.75
71 | Cc1nn(C)c(C)c1NC(=O)CN1CCOC(Cn2cccn2)C1 (stereo not given) | -1.52
72 | O=C1O[C@@H]2CN(S(=O)(=O)N3CCCC3)C[C@@H]2N1CCc1cccc(Cl)c1 | 0.28
73 | CCCn1c(C)c(CC(=O)N[C@H](C)C(=O)OC)c2c1CC(C)(C)CC2=O | -0.686
74 | COc1cccc(-n2cc(CN(C)Cc3ccnc(C(C)C)n3)cn2)c1 | -6.06
75 | COCC1c2c(cnn2C)CCN1Cc1ccc(F)cc1 (stereo not given) | -0.871
76 | Cc1cc(F)ccc1S(=O)(=O)NCc1[nH]ncc1Br | -7.73
77 | CC(=O)Nc1nc(C(=O)Nc2ccc(N3CCCCC3)nc2)cs1 | 13.7
78 | CC1CCCN(c2ccccc2OCC(=O)N2CCOCC2)C1 (stereo not given) | 17.5
79 | Cc1nc(N(C)C)cc(C2(C)CCCNC2)n1 (stereo not given) | -2.1
80 | Cc1nc(C2CCCN(C(=O)c3sccc3C3CC3)C2)no1 (stereo not given) | -8.62
81 | COCC(NC(=O)c1ccco1)c1cccc(C(F)(F)F)c1 (stereo not given) | -3.48
82 | Cc1noc(CN(C)CC2CCN(CCO)CC2)n1 | 5
83 | CC(=O)N1CCCC(c2nc(-c3ccccc3)c[nH]2)C1 (stereo not given) | -3.53
84 | CN1CCCC(CCC(=O)N2CCc3c(nc(CC4CC4)[nH]c3=O)C2)C1 (stereo not given) | -4.3
85 | CCn1cnnc1CNC(=O)NCC(c1cccs1)N1CCCC1 (stereo not given) | -14
86 | Cc1cccc(C)c1OCCC(=O)N1CCC(c2nncn2C)CC1 | -21.4
87 | Cc1nccn1-c1cc(CNC(=O)c2ccnc(N(C)C)c2)ccn1 | -10.5
88 | Cc1ccccc1C(C)NC(=O)c1ccc(=O)n(C)c1 (stereo not given) | -4.64
89 | Oc1cccc2ccc(CN3CCC4(CCNCC4)C3)nc12 | -4.99
90 | CN(C)Cc1cn(-c2ccccc2C(=O)NCCC2CCCN2C)cn1 (stereo not given) | 24.5
91 | Cn1cnc2c1CCN(Cc1cccc(C(N)=O)c1)C2 | -7.77
92 | CCc1nc(N)nc(NCCC(=O)NC2CCCCC2)c1C | -3.68

Row | Compound | cytotoxicity at 70.5 h [%]
93 | Cc1cnn(CCNCC(=O)N(C)C(C)c2ccccc2)c1 (stereo not given) | -10.5
94 | COc1cccc(C(=O)N2C[C@@H](c3ccccc3)[C@@H]3NCCCC[C@@H]32)c1 | -8.79
95 | CC(=O)NCC1CCN(C(=O)NCCc2ccc3c(c2)OCO3)CC1 | -17.3
96 | CC(=O)N1CCCN(C(C(=O)O)c2ccc(C)cc2C)CC1 (stereo not given) | -10.9
97 | Cc1ccoc1-c1nnc(CNC2CCCN(c3cccnn3)C2)o1 (stereo not given) | 12.6
98 | CN1CC(=O)N(c2cccc(F)c2)CC12CCN(CC1CCOCC1)C2 (stereo not given) | 5.35
99 | CCC(C(=O)N(Cc1ccccc1OC)C1CC1)n1cccn1 (stereo not given) | -10.3
100 | Cc1cc(N2CCCN(C(=O)Cc3cccnc3)CC2)ccn1 | -6.53
101 | Cc1cccc(NCc2nn(C)c(=O)[nH]2)c1 | -11
102 | CCn1ncc(CN2CCc3nc(-c4cccnc4)nc(O)c3C2)c1C | 9.93
103 | CC(C)CC(C)NCc1cccnc1N1CCOCC1 (stereo not given) | 19.8
104 | Cn1cc([C@@H]2CN(S(C)(=O)=O)C[C@H]2N)c2ccncc21 | 19
105 | CC(C)OC(=O)N1CCC(Nc2ncc(Br)cn2)CC1 | -2.18
106 | Cc1nccn1CCC1CCCCN1C(=O)c1ccc2nonc2c1 (stereo not given) | -1.05
107 | CN(C)C(=O)N1CCN(C(=O)c2ccn3ccnc3c2)CC1 | -3.58
108 | Cn1cc(C(=O)N2CCN(Cc3cscn3)CC2)ccc1=O | 4.94
109 | OC(CN1CCN(Cc2cccnc2)CC1)c1cccs1 (stereo not given) | -3.13
110 | CC(C)CC(NCc1cscn1)c1ccccn1 (stereo not given) | -7.87
111 | O=C(CN1CCc2cncnc2C1)Nc1ccc(Cl)cn1 | 6.59
112 | Cc1cc(CN2CCN(c3ccc4nncn4n3)C(C)C2)no1 (stereo not given) | 5.04
113 | Cc1nnnn1-c1cc(NCc2cccc(C#N)c2)ccc1F | -24.4
114 | CCNC(=O)c1ccc(N2CCCC(c3nccn3C(C)C)C2)nc1 (stereo not given) | -10.3
115 | CC(NCCn1c(=O)oc2ccccc21)c1ccccn1 (stereo not given) | -5.54
